Experiment: Study 1 blood chemistry
Type: in vivo, human
Conditions: for Gamma-glutamyl: in U/L (unit assumed); for A:G Ratio % Change / Alanine Aminotransferase % Change / Albumin % Change / Alkaline Phosphatase % Change / Aspartate Aminotransferase % Change / Blood Urea Nitrogen % Change / CO2 % Change / Chloride % Change / Cholesterol Ratio % Change / Creatinine % Change / Direct Bilirubin % Change / Gamma-glutamyl % Change / Globulin % Change / Glucose % Change / HDL % Change / Iron % Change / Iron Binding Capacity % Change / Iron Saturation % Change / LDL % Change / Lactate Dehydrogenase % Change / Phosphorus % Change / Potassium % Change / Protein % Change / Sodium % Change / Total Bilirubin % Change / Total Cholesterol % Change / Triglycerides % Change / UIBC % Change / Uric Acid % Change: Before to After
Method: Study 1 design. For study 1 the subjects reported to the laboratory in the morning following an overnight fast. Before ingestion of one of the supplemental treatments, a flexible sterile polyethylene catheter was inserted into a forearm vein using sterile procedures and a pre-ingestion blood sample was drawn. Subsequent blood samples were taken at 0, 2, 5, 10, 15, 25, 35, 45, 60, 90, 120 and 180 min after ingestion of the treatment. Plasma was separated and samples were stored frozen at −70° C. for analysis of HMB concentration. In addition, a portion of the pre-ingestion and 180 minute blood samples were used for measurements (LabCorp, Kansas City, Mo.) of glucose, uric acid, blood urea nitrogen (BUN), creatinine, sodium, potassium, chloride, carbon dioxide, phosphorous, protein, albumin, globulin, albumin:globulin ratio, total bilirubin, direct bilirubin, alkaline phosphatase, lactate dehydrogenase, aspartate aminotransferase (AST), alanine aminotransferase (ALT), gamma-glutamyl transpeptidase (GGT), iron binding capacity (TIBC), unsaturated iron binding capacity (UIBC), iron, iron saturation, total cholesterol, triglycerides, high density lipoprotein (HDL), low density lipoprotein (LDL), and cholesterol ratio. A complete blood count (CBC) was also performed before and after the 180 min treatment period. Subjects also completed a brief questionnaire to report any physical symptoms (such as nausea, headache, etc) they may have experienced during the experiment.
The data were analyzed using a crossover design with Proc GLM in SAS. (45) For the timed sampling of plasma HMB a repeated measures polynomial model was used. The model included subject, order, and treatment main effects and time by treatment interaction where appropriate. For other parameters Proc GLM was also used with subject, order, and treatment main effects and the p values are reported for the treatment main effect. Statistical significance was determined for p<0.05 and a trend was determined for 0.05<p<0.10.

[1] = After (180 min), listed as Free Acid Gel Sublingual
[2] = listed as Free Acid Gel Sublingual
[3] = Before, listed as Free Acid Gel Sublingual
[4] = After (180 min), listed as Free Acid Gel Swallow
[5] = listed as Free Acid Gel Swallow
[6] = Before, listed as Free Acid Gel Swallow

SMILES: CC(C)(O)CC(=O)O [HMB-Acid Gel Sublingual, 3-hydroxy-3-methylbutyric acid]
- Albumin (After (180 min)): 4.1 ± 0.2 g/dL
- Direct Bilirubin (After (180 min)): 0.1 ± 0.01 mg/dL
- Iron Saturation (After (180 min)): 30.9 ± 8.5%
- A:G Ratio [1]: 1.8 ± 0.1
- Alanine Aminotransferase [1]: 17.3 ± 2.7 IU/L
- Alkaline Phosphatase [1]: 66.8 ± 6.8 IU/L
- Aspartate Aminotransferase [1]: 28.3 ± 8.2 IU/L
- Blood Urea Nitrogen [1]: 12.9 ± 0.8 mg/dL
- CO2 [1]: 24.3 ± 0.6 mEq/L
- Chloride [1]: 102.4 ± 1.1 mEq/L
- Cholesterol Ratio [1]: 3.3 ± 0.2
- Creatinine [1]: 1.0 ± 0.04 mg/dL
- Globulin [1]: 2.3 ± 0.1 g/dL
- Glucose [1]: 77.4 ± 2.5 mg/dL
- HDL [1]: 49.3 ± 4.3 mg/dL
- Iron [1]: 94.6 ± 16.6 µg/dL
- Iron Binding Capacity [1]: 339.5 ± 30.8 µg/dL
- LDL [1]: 89.4 ± 4.9 mg/dL
- Lactate Dehydrogenase [1]: 167.3 ± 12.2 IU/L
- Phosphorus [1]: 3.5 ± 0.2 mg/dL
- Potassium [1]: 4.5 ± 0.1 mEq/L
- Protein [1]: 6.4 ± 0.2 g/dL
- Sodium [1]: 137.8 ± 0.9 mEq/L
- Total Bilirubin [1]: 0.5 ± 0.05 mg/dL
- Total Cholesterol [1]: 155.5 ± 5.8 mg/dL
- Triglycerides [1]: 83.8 ± 15.8 mg/dL
- UIBC [1]: 244.9 ± 39.5 µg/dL
- Uric Acid [1]: 4.0 ± 0.5 mg/dL
- Gamma-glutamyl [1]: 13.4 ± 1.2
- A:G Ratio (Before): 1.9 ± 0.1
- Creatinine (Before): 1.0 ± 0.1 mg/dL
- Direct Bilirubin (Before): 0.1 ± 0.01 mg/dL
- Total Bilirubin (Before): 0.4 ± 0.05 mg/dL
- A:G Ratio % Change [2]: −2.0%
- Alanine Aminotransferase % Change [2]: −0.7%
- Albumin % Change [2]: 1.5%
- Alkaline Phosphatase % Change [2]: 1.1%
- Aspartate Aminotransferase % Change [2]: 0.9%
- Blood Urea Nitrogen % Change [2]: −10.4%
- CO2 % Change [2]: 1.0%
- Chloride % Change [2]: −0.5%
- Cholesterol Ratio % Change [2]: −0.4%
- Creatinine % Change [2]: −1.5%
- Direct Bilirubin % Change [2]: 8.6%
- Gamma-glutamyl % Change [2]: 0.9%
- Globulin % Change [2]: 1.6%
- Glucose % Change [2]: 4.4%
- HDL % Change [2]: 1.3%
- Iron % Change [2]: 13.7%
- Iron Binding Capacity % Change [2]: 3.5%
- Iron Saturation % Change [2]: 6.0%
- LDL % Change [2]: 2.1%
- Lactate Dehydrogenase % Change [2]: 1.5%
- Phosphorus % Change [2]: −13.2%
- Potassium % Change [2]: 10.6%
- Protein % Change [2]: 1.6%
- Sodium % Change [2]: −1.1%
- Total Bilirubin % Change [2]: 22.6%
- Total Cholesterol % Change [2]: 0.7%
- Triglycerides % Change [2]: −8.7%
- UIBC % Change [2]: 0.1%
- Uric Acid % Change [2]: −2.2%
- Alanine Aminotransferase [3]: 17.4 ± 2.7 IU/L
- Albumin [3]: 4.1 ± 0.1 g/dL
- Alkaline Phosphatase [3]: 66.0 ± 6.3 IU/L
- Aspartate Aminotransferase [3]: 28.0 ± 7.9 IU/L
- Blood Urea Nitrogen [3]: 14.4 ± 0.8 mg/dL
- CO2 [3]: 24.0 ± 0.5 mEq/L
- Chloride [3]: 102.9 ± 0.6 mEq/L
- Cholesterol Ratio [3]: 3.3 ± 0.2
- Globulin [3]: 2.3 ± 0.2 g/dL
- Glucose [3]: 74.1 ± 1.7 mg/dL
- HDL [3]: 48.6 ± 4.6 mg/dL
- Iron [3]: 83.3 ± 16.4 µg/dL
- Iron Binding Capacity [3]: 328.0 ± 32.8 µg/dL
- Iron Saturation [3]: 29.1 ± 9.0%
- LDL [3]: 87.5 ± 5.7 mg/dL
- Lactate Dehydrogenase [3]: 164.8 ± 12.5 IU/L
- Phosphorus [3]: 4.1 ± 0.05 mg/dL
- Potassium [3]: 4.0 ± 0.03 mEq/L
- Protein [3]: 6.3 ± 0.2 g/dL
- Sodium [3]: 139.3 ± 0.8 mEq/L
- Total Cholesterol [3]: 154.4 ± 6.9 mg/dL
- Triglycerides [3]: 91.8 ± 16.1 mg/dL
- UIBC [3]: 244.8 ± 42.3 µg/dL
- Uric Acid [3]: 4.0 ± 0.4 mg/dL
- Gamma-glutamyl [3]: 13.3 ± 1.2

SMILES: CC(C)(O)CC(=O)O [HMB-Acid Gel Swallow, 3-hydroxy-3-methylbutyric acid]
- Albumin (After (180 min)): 4.1 ± 0.2 g/dL
- Direct Bilirubin (After (180 min)): 0.1 ± 0.01 mg/dL
- A:G Ratio [4]: 1.9 ± 0.1
- Alanine Aminotransferase [4]: 15.6 ± 1.3 IU/L
- Alkaline Phosphatase [4]: 64.4 ± 6.7 IU/L
- Aspartate Aminotransferase [4]: 23.1 ± 2.0 IU/L
- Blood Urea Nitrogen [4]: 14.4 ± 1.5 mg/dL
- CO2 [4]: 24.3 ± 0.5 mEq/L
- Chloride [4]: 103.3 ± 0.5 mEq/L
- Cholesterol Ratio [4]: 3.3 ± 0.3
- Creatinine [4]: 0.9 ± 0.1 mg/dL
- Globulin [4]: 2.2 ± 0.1 g/dL
- Glucose [4]: 73.3 ± 4.1 mg/dL
- HDL [4]: 48.5 ± 3.7 mg/dL
- Iron [4]: 96.3 ± 17.3 µg/dL
- Iron Binding Capacity [4]: 333.4 ± 35.2 µg/dL
- Iron Saturation [4]: 33.5 ± 8.4%
- LDL [4]: 85.6 ± 4.1 mg/dL
- Lactate Dehydrogenase [4]: 166.3 ± 11.1 IU/L
- Phosphorus [4]: 3.4 ± 0.1 mg/dL
- Potassium [4]: 4.6 ± 0.3 mEq/L
- Protein [4]: 6.3 ± 0.2 g/dL
- Sodium [4]: 138.3 ± 0.9 mEq/L
- Total Bilirubin [4]: 0.5 ± 0.07 mg/dL
- Total Cholesterol [4]: 153.3 ± 5.6 mg/dL
- Triglycerides [4]: 87.5 ± 14.8 mg/dL
- UIBC [4]: 237.1 ± 49.2 µg/dL
- Uric Acid [4]: 4.9 ± 0.4 mg/dL
- Gamma-glutamyl [4]: 13.5 ± 1.1
- A:G Ratio (Before): 1.9 ± 0.1
- Creatinine (Before): 1.0 ± 0.1 mg/dL
- Direct Bilirubin (Before): 0.1 ± 0.01 mg/dL
- Total Bilirubin (Before): 0.4 ± 0.05 mg/dL
- A:G Ratio % Change [5]: 0.0%
- Alanine Aminotransferase % Change [5]: −1.6%
- Albumin % Change [5]: 1.9%
- Alkaline Phosphatase % Change [5]: 0.8%
- Aspartate Aminotransferase % Change [5]: −3.6%
- Blood Urea Nitrogen % Change [5]: −6.5%
- CO2 % Change [5]: 8.1%
- Chloride % Change [5]: −0.4%
- Cholesterol Ratio % Change [5]: −3.3%
- Creatinine % Change [5]: −4.7%
- Direct Bilirubin % Change [5]: 7.9%
- Gamma-glutamyl % Change [5]: −6.1%
- Globulin % Change [5]: 0.6%
- Glucose % Change [5]: 3.9%
- HDL % Change [5]: 3.5%
- Iron % Change [5]: 12.6%
- Iron Binding Capacity % Change [5]: 1.4%
- Iron Saturation % Change [5]: 9.4%
- LDL % Change [5]: −3.1%
- Lactate Dehydrogenase % Change [5]: −1.5%
- Phosphorus % Change [5]: −15.6%
- Potassium % Change [5]: 11.4%
- Protein % Change [5]: 1.4%
- Sodium % Change [5]: −0.2%
- Total Bilirubin % Change [5]: 23.3%
- Total Cholesterol % Change [5]: −0.2%
- Triglycerides % Change [5]: −4.1%
- UIBC % Change [5]: −2.5%
- Uric Acid % Change [5]: 0.8%
- Alanine Aminotransferase [6]: 15.9 ± 1.5 IU/L
- Albumin [6]: 4.0 ± 0.2 g/dL
- Alkaline Phosphatase [6]: 63.9 ± 5.8 IU/L
- Aspartate Aminotransferase [6]: 24.0 ± 2.2 IU/L
- Blood Urea Nitrogen [6]: 15.4 ± 1.6 mg/dL
- CO2 [6]: 22.4 ± 0.7 mEq/L
- Chloride [6]: 103.6 ± 0.8 mEq/L
- Cholesterol Ratio [6]: 3.4 ± 0.2
- Globulin [6]: 2.2 ± 0.1 g/dL
- Glucose [6]: 70.5 ± 1.7 mg/dL
- HDL [6]: 46.9 ± 3.4 mg/dL
- Iron [6]: 85.5 ± 19.2 µg/dL
- Iron Binding Capacity [6]: 328.6 ± 31.0 µg/dL
- Iron Saturation [6]: 30.6 ± 9.4%
- LDL [6]: 88.4 ± 3.0 mg/dL
- Lactate Dehydrogenase [6]: 168.8 ± 10.4 IU/L
- Phosphorus [6]: 4.0 ± 0.1 mg/dL
- Potassium [6]: 4.2 ± 0.1 mEq/L
- Protein [6]: 6.2 ± 0.2 g/dL
- Sodium [6]: 138.5 ± 1.1 mEq/L
- Total Cholesterol [6]: 153.5 ± 5.3 mg/dL
- Triglycerides [6]: 91.3 ± 17.0 mg/dL
- UIBC [6]: 243.1 ± 47.4 µg/dL
- Uric Acid [6]: 4.9 ± 0.4 mg/dL
- Gamma-glutamyl [6]: 14.4 ± 1.6
